Laboratory results as given in PubChem BioAssay AID2060511 (Molecular Pharmacology Branch, DTP, NCI, 2025).

Tested on: 422866-222-R5-J1-PDC spheroids with HUVEC/MSC, viability
Test: Anticancer human tumor 422866-222-R5-J1-PDC patient-derived pancreatic adenocarcinoma cell line growth inhibition [GQUAD]
Conditions: for IC50: curve of first compound; for viability, T/C: stronger effect = lower value
From the text: DNA G-quadruplex Stabilizer Agents in Combinations in Complex Spheroids
A high-throughput screen of multi-cell type tumor spheroids was designed to identify active combinations of DNA G-quadruplex stabilizer agents and targeted small molecules. Complex spheroids include a stromal component modeled by human endothelial cells (HUVEC) and fibroblasts modeled by human mesenchymal stem cells (MSCs). The concentration ranges selected for each drug and investigational agent were based upon clinically achievable concentrations if the clinical Cmax of the agent was known.
Compounds. The drugs and investigational agents: pidnarulex (CX-5461; NSC782164), APTO-253 (NSC789042), BRACO-19 (NSC847499), peposertib (NSC802822), ceralasertib (NSC780249), elimusertib (NSC800525), camonsertib (NSC841442), AZD-1390 (NSC803789), olaparib (NSC753686), talazoparib (NSC767125), ART-558 (NSC835418), sotorasib (NSC818433), MRTX-1133 (NSC836407), SN-38 (NSC673596), topotecan (NSC609699), etoposide (NSC141540), doxorubicin (NSC123127), gemcitabine (NSC613327), 5-fluorouracil (NSC19893), paclitaxel (NSC125973), vemurafenib (NSC761431), panobinostat (NSC761190), R-306465 (JNJ-16241199; NSC773264), adavosertib (NSC754352), TP-3654 (NSC805149), carboplatin (NSC241240), KSQ-4279 (NSC840948), and staurosporine (NSC755774) were obtained from the National Cancer Institute (NCI) Developmental Therapeutics Program Chemical Repository (34). The FDA-approved anticancer drug set is available from the NCI Developmental Therapeutics Program. […] The stock solutions were prepared in dimethyl sulfoxide (DMSO, Sigma-Aldrich, St. Louis, MO, cat. D2650) at 800-fold the tested concentration and stored at -70 degrees C prior to their use. All drugs and investigational agents were tested over a range starting from a high concentration at or near the clinical Cmax and decreasing in half-log increments. If the clinical Cmax for an agent had not been determined, the highest concentration tested was 10 microM.
2.3 Cell Culture. All cells were maintained in an incubator at 37 degrees C and 5% CO2 with 95% humidity. The PDC lines were cultured according to standard operating procedures established by the NCI PDMR. All PDCs were thawed and cultured in Matrigel-coated flasks prepared with a working solution of 1X Ham's F-12 nutrient mix, without supplementation (Invitrogen, cat. 11765054), 100 U/mL penicillin-streptomycin (Invitrogen, cat. 15140122), and 2.5% Matrigel (Corning Inc., cat. 354248) for the first three passages. The 857933-349-R-J2-PDC line was cultured in 6C/Colon 1B media, which includes advanced DMEM/F-12 (Thermo Fisher Scientific, cat. 12634028), 10 mM HEPES (Thermo Fisher Scientific, cat. 15630080), 1X GlutaMAX supplement (Thermo Fisher Scientific, cat. 35050061), 0.1 mg/mL primocin (InvivoGen, cat. ant-pm-2), 10% defined fetal bovine serum, heat inactivated (HyClone Laboratories Inc., cat. SH30070.03HI), 50% L-WRN conditioned media (ATCC, cat. CRL-3276), 1.25 mM N-Acetyl-L-cysteine (Sigma-Aldrich, cat. A9165), 10 mM nicotinamide (Sigma-Aldrich, cat. N0636), 1X B-27 supplement (Thermo Fisher Scientific, cat. 17504044), 1X N-2 supplement (Thermo Fisher Scientific, cat. 17502048), 10 microM Y-27632 dihydrochloride (Tocris Bioscience, cat. 1254), and 50 ng/mL human EGF recombinant protein (Thermo Fisher Scientific, cat. PHG0311). The 485176-168-R4-J1-PDC line was cultured in Panc media, which includes all 6C/Colon 1B media components plus 100 ng/mL human FGF-10 (Thermo Fisher Scientific, cat. 100-26), 500 nM SB-431542 (Selleckchem, cat. S1067), and gastrin (Tocris, cat. 3006).
[…]

[1] = second compound 0.0316 µM, first compound 0.0316 µM
[2] = second compound 0.0316 µM, first compound 0.1 µM
[3] = second compound 0.0316 µM, first compound 0.316 µM
[4] = second compound 0.0316 µM, first compound 1 µM
[5] = second compound 0.0316 µM, first compound 3.16 µM
[6] = second compound 0.0316 µM, first compound 10 µM
[7] = second compound 0.1 µM, first compound 0.0316 µM
[8] = second compound 0.1 µM, first compound 0.1 µM
[9] = second compound 0.1 µM, first compound 0.316 µM
[10] = second compound 0.1 µM, first compound 1 µM
[11] = second compound 0.1 µM, first compound 3.16 µM
[12] = second compound 0.1 µM, first compound 10 µM
[13] = second compound 0.316 µM, first compound 0.0316 µM
[14] = second compound 0.316 µM, first compound 0.1 µM
[15] = second compound 0.316 µM, first compound 0.316 µM
[16] = second compound 0.316 µM, first compound 1 µM
[17] = second compound 0.316 µM, first compound 3.16 µM
[18] = second compound 0.316 µM, first compound 10 µM
[19] = second compound 1 µM, first compound 0.0316 µM
[20] = second compound 1 µM, first compound 0.1 µM
[21] = second compound 1 µM, first compound 0.316 µM
[22] = second compound 1 µM, first compound 1 µM
[23] = second compound 1 µM, first compound 3.16 µM
[24] = second compound 1 µM, first compound 10 µM
[25] = second compound 3.16 µM, first compound 0.0316 µM
[26] = second compound 3.16 µM, first compound 0.1 µM
[27] = second compound 3.16 µM, first compound 0.316 µM
[28] = second compound 3.16 µM, first compound 1 µM
[29] = second compound 3.16 µM, first compound 3.16 µM
[30] = second compound 3.16 µM, first compound 10 µM
[31] = second compound 10 µM, first compound 0.0316 µM
[32] = second compound 10 µM, first compound 0.1 µM
[33] = second compound 10 µM, first compound 0.316 µM
[34] = second compound 10 µM, first compound 1 µM
[35] = second compound 10 µM, first compound 3.16 µM
[36] = second compound 10 µM, first compound 10 µM
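Also: spheroids exposed to compounds for seven days before reading.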
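For viability, T/C in this document: percent viability relative to DMSO vehicle control taken as 100%.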

For `C=CCn1c(=O)c2cnc(Nc3ccc(N4CCN(C)CC4)cc3)nc2n1-c1cccc(C(C)(C)O)n1` + CN(C)c1ccc(Nc2c3ccc(NC(=O)CCN4CCCC4)cc3nc3cc(NC(=O)CCN4CCCC4)ccc23)cc1, which IC50 (second compound 0.0316 µM) is on record?
Its IC50 is 0.459 µM.

What about the IC50 (second compound 0.1 µM) of the same molecule?
The IC50 was 0.682 µM.

What about the IC50 (second compound 0.316 µM) of the same molecule?
The IC50 was 0.489 µM.

What about the IC50 (second compound 1 µM) of the same molecule?
The IC50 was 0.548 µM.

What about the IC50 (second compound 3.16 µM) of the same molecule?
The IC50 was 0.601 µM.

And the IC50 (second compound 10 µM)?
The IC50 was 1.71 µM.

What about the viability, T/C [1] of the same molecule?
The viability, T/C was 109%.

What about the viability, T/C [2] of the same molecule?
Its viability, T/C is 123%.

What about the viability, T/C [3] of the same molecule?
Its viability, T/C is 56.4%.

What about the viability, T/C [4] of the same molecule?
The viability, T/C was 37.7%.

And the viability, T/C [5]?
The viability, T/C was 40.3%.

What about the viability, T/C [6] of the same molecule?
Its viability, T/C is 31.5%.

What about the viability, T/C [7] of the same molecule?
Its viability, T/C is 106%.

What about the viability, T/C [8] of the same molecule?
The viability, T/C was 96.1%.

What about the viability, T/C [9] of the same molecule?
Its viability, T/C is 61.5%.

What about the viability, T/C [10] of the same molecule?
The viability, T/C was 47.3%.

And the viability, T/C [11]?
Its viability, T/C is 34.2%.

And the viability, T/C [12]?
Its viability, T/C is 37.5%.

What about the viability, T/C [13] of the same molecule?
Its viability, T/C is 128%.

And the viability, T/C [14]?
Its viability, T/C is 95.1%.

And the viability, T/C [15]?
Its viability, T/C is 57.1%.

And the viability, T/C [16]?
The viability, T/C was 38.4%.

And the viability, T/C [17]?
Its viability, T/C is 34.9%.

What about the viability, T/C [18] of the same molecule?
Its viability, T/C is 39.5%.

What about the viability, T/C [19] of the same molecule?
The viability, T/C was 95.3%.

And the viability, T/C [20]?
Its viability, T/C is 77.2%.

And the viability, T/C [21]?
The viability, T/C was 62.3%.

What about the viability, T/C [22] of the same molecule?
Its viability, T/C is 35.4%.

What about the viability, T/C [23] of the same molecule?
Its viability, T/C is 39.6%.

And the viability, T/C [24]?
Its viability, T/C is 34.2%.

What about the viability, T/C [25] of the same molecule?
Its viability, T/C is 99.7%.

What about the viability, T/C [26] of the same molecule?
The viability, T/C was 87.2%.

What about the viability, T/C [27] of the same molecule?
The viability, T/C was 56.7%.

What about the viability, T/C [28] of the same molecule?
Its viability, T/C is 42%.

And the viability, T/C [29]?
Its viability, T/C is 48.2%.

And the viability, T/C [30]?
Its viability, T/C is 42.6%.

What about the viability, T/C [31] of the same molecule?
The viability, T/C was 95%.

And the viability, T/C [32]?
The viability, T/C was 80%.

What about the viability, T/C [33] of the same molecule?
Its viability, T/C is 62.3%.

And the viability, T/C [34]?
The viability, T/C was 45.5%.

What about the viability, T/C [35] of the same molecule?
The viability, T/C was 56.3%.

What about the viability, T/C [36] of the same molecule?
The viability, T/C was 45.1%.

For `COc1cc(C2c3cc4c(cc3C(OC3OC5COC(C)OC5C(O)C3O)C3COC(=O)C23)OCO4)cc(OC)c1O` (centres undefined) + CN(C)c1ccc(Nc2c3ccc(NC(=O)CCN4CCCC4)cc3nc3cc(NC(=O)CCN4CCCC4)ccc23)cc1, which IC50 (second compound 0.0316 µM) is on record?
Its IC50 is 1.89 µM.

What about the IC50 (second compound 0.1 µM) of the same molecule?
Its IC50 is 1.52 µM.

What about the IC50 (second compound 0.316 µM) of the same molecule?
Its IC50 is 3.33 µM.

What about the IC50 (second compound 1 µM) of the same molecule?
Its IC50 is 0.926 µM.

What about the IC50 (second compound 3.16 µM) of the same molecule?
Its IC50 is 3.09 µM.

What about the IC50 (second compound 10 µM) of the same molecule?
The IC50 was 4.39 µM.

And the viability, T/C [1]?
The viability, T/C was 97.3%.

What about the viability, T/C [2] of the same molecule?
The viability, T/C was 89%.

And the viability, T/C [3]?
The viability, T/C was 84.5%.

What about the viability, T/C [4] of the same molecule?
Its viability, T/C is 57.5%.

And the viability, T/C [5]?
The viability, T/C was 41.4%.

And the viability, T/C [6]?
Its viability, T/C is 45.4%.

What about the viability, T/C [7] of the same molecule?
Its viability, T/C is 116%.

And the viability, T/C [8]?
The viability, T/C was 86.6%.

What about the viability, T/C [9] of the same molecule?
The viability, T/C was 70.9%.

What about the viability, T/C [10] of the same molecule?
The viability, T/C was 54.1%.

And the viability, T/C [11]?
The viability, T/C was 40.9%.

What about the viability, T/C [12] of the same molecule?
Its viability, T/C is 38.2%.

And the viability, T/C [13]?
The viability, T/C was 101%.

What about the viability, T/C [14] of the same molecule?
Its viability, T/C is 92.9%.

And the viability, T/C [15]?
Its viability, T/C is 73.8%.

What about the viability, T/C [16] of the same molecule?
The viability, T/C was 59.2%.

What about the viability, T/C [17] of the same molecule?
The viability, T/C was 50.7%.

What about the viability, T/C [18] of the same molecule?
The viability, T/C was 46.3%.

And the viability, T/C [19]?
Its viability, T/C is 92%.

And the viability, T/C [20]?
The viability, T/C was 79.4%.

And the viability, T/C [21]?
The viability, T/C was 63.9%.

What about the viability, T/C [22] of the same molecule?
Its viability, T/C is 47.1%.

And the viability, T/C [23]?
The viability, T/C was 44.4%.

What about the viability, T/C [24] of the same molecule?
Its viability, T/C is 38.1%.

What about the viability, T/C [25] of the same molecule?
Its viability, T/C is 85.7%.

And the viability, T/C [26]?
The viability, T/C was 76.2%.

And the viability, T/C [27]?
Its viability, T/C is 65.9%.

What about the viability, T/C [28] of the same molecule?
Its viability, T/C is 56.2%.

What about the viability, T/C [29] of the same molecule?
Its viability, T/C is 49.9%.

And the viability, T/C [30]?
Its viability, T/C is 46%.

And the viability, T/C [31]?
Its viability, T/C is 73.2%.

What about the viability, T/C [32] of the same molecule?
Its viability, T/C is 80.8%.

And the viability, T/C [33]?
The viability, T/C was 67.1%.

And the viability, T/C [34]?
Its viability, T/C is 63.9%.

And the viability, T/C [35]?
Its viability, T/C is 55.9%.

What about the viability, T/C [36] of the same molecule?
Its viability, T/C is 38.2%.
